We go through 21 molecules from ChEMBL document CHEMBL4825753 (J Med Chem, 2021).

For data set [1], the target named is T1, Tyrosine-protein kinase Mer (Homo sapiens, UniProt Q12866).
T1 sequence (Q12866 whole entry): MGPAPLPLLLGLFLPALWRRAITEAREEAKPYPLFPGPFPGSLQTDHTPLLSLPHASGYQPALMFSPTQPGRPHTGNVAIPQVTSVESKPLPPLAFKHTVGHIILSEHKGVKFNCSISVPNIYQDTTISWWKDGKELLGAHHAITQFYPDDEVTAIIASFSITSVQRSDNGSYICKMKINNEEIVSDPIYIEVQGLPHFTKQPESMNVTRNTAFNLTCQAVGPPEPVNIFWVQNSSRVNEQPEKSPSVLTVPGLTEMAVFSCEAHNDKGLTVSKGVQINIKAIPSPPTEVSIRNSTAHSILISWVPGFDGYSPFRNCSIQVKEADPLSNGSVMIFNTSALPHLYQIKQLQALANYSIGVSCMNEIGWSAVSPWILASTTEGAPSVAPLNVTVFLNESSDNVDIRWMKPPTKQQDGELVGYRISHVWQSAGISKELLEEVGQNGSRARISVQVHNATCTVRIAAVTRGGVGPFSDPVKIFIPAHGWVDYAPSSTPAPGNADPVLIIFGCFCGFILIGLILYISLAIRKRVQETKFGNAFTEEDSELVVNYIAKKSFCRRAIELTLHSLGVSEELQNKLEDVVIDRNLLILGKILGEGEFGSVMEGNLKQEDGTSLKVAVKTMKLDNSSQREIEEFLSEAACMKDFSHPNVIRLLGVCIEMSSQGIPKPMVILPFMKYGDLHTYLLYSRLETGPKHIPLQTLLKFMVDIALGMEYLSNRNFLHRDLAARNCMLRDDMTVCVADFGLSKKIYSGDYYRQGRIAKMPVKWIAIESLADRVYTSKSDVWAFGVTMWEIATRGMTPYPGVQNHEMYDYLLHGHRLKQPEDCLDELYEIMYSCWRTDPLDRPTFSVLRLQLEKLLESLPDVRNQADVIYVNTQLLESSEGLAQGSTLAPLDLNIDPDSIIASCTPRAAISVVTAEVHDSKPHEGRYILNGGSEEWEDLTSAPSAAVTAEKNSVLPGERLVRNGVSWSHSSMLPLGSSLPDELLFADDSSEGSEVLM
The data set can be described thus: Inhibition of MER (unknown origin) by LC-MS analysis.

Data set [2] concerns the target T2, Tyrosine-protein kinase receptor UFO (Homo sapiens, UniProt P30530).
T2 sequence (P30530 whole entry): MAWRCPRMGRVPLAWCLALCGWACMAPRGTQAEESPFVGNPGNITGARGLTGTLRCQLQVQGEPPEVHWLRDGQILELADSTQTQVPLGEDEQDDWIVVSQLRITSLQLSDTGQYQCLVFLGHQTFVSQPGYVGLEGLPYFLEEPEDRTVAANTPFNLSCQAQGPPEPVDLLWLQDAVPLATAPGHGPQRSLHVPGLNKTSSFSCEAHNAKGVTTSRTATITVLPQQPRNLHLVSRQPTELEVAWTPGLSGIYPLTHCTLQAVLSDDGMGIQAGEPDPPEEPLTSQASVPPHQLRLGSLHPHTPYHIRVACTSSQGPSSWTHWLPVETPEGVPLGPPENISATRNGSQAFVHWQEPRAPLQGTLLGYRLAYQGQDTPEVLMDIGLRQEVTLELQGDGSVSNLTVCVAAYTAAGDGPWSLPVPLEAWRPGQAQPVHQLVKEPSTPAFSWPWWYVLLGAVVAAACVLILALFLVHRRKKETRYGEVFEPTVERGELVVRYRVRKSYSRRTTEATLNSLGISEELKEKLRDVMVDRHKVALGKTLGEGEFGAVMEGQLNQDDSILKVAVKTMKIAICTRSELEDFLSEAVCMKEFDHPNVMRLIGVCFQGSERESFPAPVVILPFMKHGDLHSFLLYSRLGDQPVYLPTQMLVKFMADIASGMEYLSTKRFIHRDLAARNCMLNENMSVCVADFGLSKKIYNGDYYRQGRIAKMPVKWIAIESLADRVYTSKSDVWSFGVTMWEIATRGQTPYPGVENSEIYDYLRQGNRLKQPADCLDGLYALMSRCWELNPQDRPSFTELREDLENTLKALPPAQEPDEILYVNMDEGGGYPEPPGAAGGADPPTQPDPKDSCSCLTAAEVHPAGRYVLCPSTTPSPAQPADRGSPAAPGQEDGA
The data set can be described thus: Inhibition of AXL (unknown origin) by LC-MS analysis.

The nature of data set [3]: Lipophilicity, log D of the compound at pH 7.4. Type of data set: physicochemical. The conditions noted are these: buffer.
In data set [4] the target is T3, Receptor-type tyrosine-protein kinase FLT3 (Homo sapiens, UniProt P36888).
T3 sequence (P36888 whole entry): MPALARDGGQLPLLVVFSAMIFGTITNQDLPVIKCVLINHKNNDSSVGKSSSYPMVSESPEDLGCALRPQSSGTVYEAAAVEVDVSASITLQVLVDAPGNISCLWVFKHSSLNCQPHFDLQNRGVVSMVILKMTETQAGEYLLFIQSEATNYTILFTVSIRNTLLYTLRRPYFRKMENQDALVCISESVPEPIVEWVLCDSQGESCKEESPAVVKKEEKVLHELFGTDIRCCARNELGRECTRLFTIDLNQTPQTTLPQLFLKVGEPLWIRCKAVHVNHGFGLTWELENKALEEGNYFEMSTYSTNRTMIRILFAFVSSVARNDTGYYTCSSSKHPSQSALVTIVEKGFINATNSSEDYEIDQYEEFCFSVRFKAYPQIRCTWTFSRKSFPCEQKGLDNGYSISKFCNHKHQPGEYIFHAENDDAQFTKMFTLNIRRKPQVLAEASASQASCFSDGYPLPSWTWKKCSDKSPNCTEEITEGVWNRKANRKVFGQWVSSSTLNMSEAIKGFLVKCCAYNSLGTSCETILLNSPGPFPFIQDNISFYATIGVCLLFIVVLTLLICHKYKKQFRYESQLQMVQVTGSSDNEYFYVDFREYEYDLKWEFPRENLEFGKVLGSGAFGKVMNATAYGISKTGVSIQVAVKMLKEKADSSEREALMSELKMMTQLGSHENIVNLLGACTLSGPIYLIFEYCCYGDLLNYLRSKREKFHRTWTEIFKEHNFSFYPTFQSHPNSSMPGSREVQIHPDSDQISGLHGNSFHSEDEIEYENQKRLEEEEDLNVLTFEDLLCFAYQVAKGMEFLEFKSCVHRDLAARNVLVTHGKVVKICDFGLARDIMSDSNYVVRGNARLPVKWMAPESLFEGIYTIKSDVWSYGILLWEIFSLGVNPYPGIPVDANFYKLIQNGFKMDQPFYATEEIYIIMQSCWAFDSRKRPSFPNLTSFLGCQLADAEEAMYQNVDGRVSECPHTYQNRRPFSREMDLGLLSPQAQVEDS
The data set can be described thus: Inhibition of FLT3 (unknown origin) by LC-MS analysis.

Data set [5] deals with T2, Tyrosine-protein kinase receptor UFO. The data set can be described thus: Inhibition of FLAG-tagged AXL (unknown origin) transfected in Cos-7 cells assessed as phosphorylation level incubated for 1 hr by ELISA. Type of data set: cell-based. For orientation: ELISA stands for enzyme-linked immunosorbent assay.
Data set [6] concerns the target T3, Receptor-type tyrosine-protein kinase FLT3. The data set can be described thus: Inhibition of FLAG-tagged FLT3 (unknown origin) transfected in Cos-7 cells assessed as phosphorylation level incubated for 1 hr by ELISA. In kind it is cell-based.

SMILES strings stand for the structures.

Regarding `Cc1ccccc1-c1ccc(-c2nnc(N(C)Cc3ccc4nccn4c3)o2)cc1`, the IC50 – broadly, the concentration that inhibits the measured activity by half – in data set [1] was 0.0126 µM; in data set [2], 0.631 µM; in data set [4], 1 µM. Moreover, the logD (in general, lipophilicity at a set pH, counting ionised and neutral species) in data set [3] was found to be 4.7.
As for `CN(Cc1ccc2nccn2c1)c1nnc(-c2ccc(-c3ccccc3)cc2)o1`, the IC50 in data set [1] is 0.0398 µM; in data set [2] it was 3.16 µM; in data set [4] it was 25.1 µM. The logD in data set [3] worked out at 3.9.
Take `Cc1cc(-c2cnn(C)c2C)ccc1-c1nnc(N(C)Cc2ccc3nccn3c2)o1`: the IC50 in data set [1] is 0.002 µM; in data set [5], 0.794 µM; in data set [2] it was 0.1 µM; in data set [4] it was 63.1 µM; in data set [6], greater than 31.6 µM. In addition, the logD in data set [3] came to 3.4.
Regarding `Cc1nc(-c2c(C)nn(C)c2C)ccc1-c1nnc(N(C)Cc2ccc3nccn3c2)o1`, the IC50 in data set [1] was 0.0631 µM; in data set [5], 10 µM; in data set [2], 3.16 µM; in data set [4] it was greater than 100 µM; in data set [6], greater than 31.6 µM. This molecule came in with a logD in data set [3] of 2.5.
Turning to `Cc1nn(C)c(C)c1-c1ccc(-c2nnc(N(C)Cc3ccc4nccn4c3)o2)cc1`, the half-maximal inhibitory concentration (IC50) is 0.0316 µM in data set [1], 3.16 µM in data set [5], 1.26 µM in data set [2] and greater than 63.1 µM in data set [4]. In data set [3], this molecule had a logD of 3.1.
Consider `COc1ccccc1-c1ccc(-c2nnc(N(C)Cc3ccc4nccn4c3)o2)cc1`, for which the IC50 in data set [1] is 0.0316 µM; in data set [2], 1.58 µM; in data set [4] it was 50.1 µM. Also, the log distribution coefficient (logD) in data set [3] was found to be 4.1.
For `Cc1cc(-c2c(C)nn(C(F)F)c2C)ccc1-c1nnc(N(C)Cc2ccc3nccn3c2)o1`, the IC50 in data set [1] is 0.501 µM; in data set [5] it was greater than 10 µM; in data set [2], 63.1 µM; in data set [4], 100 µM; in data set [6], greater than 31.6 µM. In data set [3], this molecule registered a logD of 4.1.
`CN(Cc1ccc2nccn2c1)c1nnc(-c2ccc(-c3ccccc3Cl)cc2)o1` yielded a logD in data set [3] of 4.7.
Turning to `CN(Cc1ccc2nccn2c1)c1nnc(-c2ccc(C3CC3)cc2)o1`, the IC50 was 0.794 µM in data set [1], 20 µM in data set [2] and 25.1 µM in data set [4]. In addition, the logD in data set [3] was found to be 3.5.
With `Cc1cc(-c2c(C)n[nH]c2C)ccc1-c1nnc(N(C)Cc2ccc3nccn3c2)o1`, the IC50 was 0.0398 µM in data set [1]; 15.8 µM in data set [5]; 5.01 µM in data set [2]; 39.8 µM in data set [4]; 7.94 µM in data set [6]. Moreover, the logD in data set [3] is 3.8.
For the molecule `Cc1cc(-c2c(C)nn(C)c2C#N)ccc1-c1nnc(N(C)Cc2ccc3nccn3c2)o1`, the IC50 in data set [1] is 0.00158 µM; in data set [5] it was 0.398 µM; in data set [2], 0.0398 µM; in data set [4] it was 15.8 µM; in data set [6], greater than 31.6 µM. The same molecule had a pH-dependent lipophilicity (logD) in data set [3] of 3.8.
With `Cc1cc(-c2c(C)nc(C)n2C)ccc1-c1nnc(N(C)Cc2ccc3nccn3c2)o1`, the IC50 in data set [1] is 0.0398 µM; in data set [5] it was 5.01 µM; in data set [2], 3.98 µM; in data set [4] it was 39.8 µM; in data set [6] it was greater than 50.1 µM. This molecule showed a log distribution coefficient (logD) in data set [3] of 2.6.
With `Cc1nn(C)c(C)c1-c1ccc(-c2nnc(N(C)Cc3ccc4nccn4c3)o2)c(C#N)c1`, the half-maximal inhibitory concentration (IC50) in data set [1] is 100 µM; in data set [5], greater than 31.6 µM; in data set [2], greater than 100 µM; in data set [4] it was 79.4 µM; in data set [6] it was greater than 31.6 µM. This molecule gave a pH-dependent lipophilicity (logD) in data set [3] of 2.9.
For the molecule `CN(Cc1ccc2nccn2c1)c1nnc(-c2ccc(-c3ccccc3F)cc2)o1`, the results for the half-inhibitory concentration (IC50) in data set [1], in data set [2] and in data set [4] were 0.0158 µM, 1.58 µM and 50.1 µM, respectively. The molecule further gave a logD in data set [3] of 4.4.
Take `COc1cc(-c2c(C)nn(C)c2C)ccc1-c1nnc(N(C)Cc2ccc3nccn3c2)o1`: the half-inhibitory concentration (IC50) was 0.0158 µM in data set [1]; 2 µM in data set [5]; 0.794 µM in data set [2]; 39.8 µM in data set [4]; greater than 31.6 µM in data set [6]. Besides, in data set [3], the log distribution coefficient (logD) was 2.9.
Consider `Cc1cc(-c2c(C#N)nn(C)c2C)ccc1-c1nnc(N(C)Cc2ccc3nccn3c2)o1`, for which the concentration for half-maximal inhibition (IC50) in data set [1] was 0.0316 µM; in data set [5], 6.31 µM; in data set [2], 6.31 µM; in data set [4], 25.1 µM. The pH-dependent lipophilicity (logD) in data set [3] came to 3.4.
In the case of `Cc1noc(C)c1-c1ccc(-c2nnc(N(C)Cc3ccc4nccn4c3)o2)cc1`, the results for the IC50 in data set [1], in data set [2] and in data set [4] were 0.2 µM, 31.6 µM and 39.8 µM, respectively. The logD in data set [3] was found to be 3.1.
`Cc1nn(C)c(C)c1-c1ccc(-c2nnc(N(C)Cc3ccc4nccn4c3)o2)c(F)c1`: the IC50 in data set [1] is 0.0126 µM; in data set [5], 3.16 µM; in data set [2], 1.26 µM; in data set [4], greater than 100 µM; in data set [6] it was greater than 31.6 µM. In data set [3], this molecule yielded a log distribution coefficient (logD) of 3.2.
On to `Cc1ncccc1-c1ccc(-c2nnc(N(C)Cc3ccc4nccn4c3)o2)cc1`, for which the half-maximal inhibitory concentration (IC50) was 0.0501 µM in data set [1], 6.31 µM in data set [2] and 20 µM in data set [4]. In data set [3], this molecule returned a logD of 3.1.
Taken in the same sequence, the figures for `CN(Cc1ccc2nccn2c1)c1nnc(-c2ccccc2)o1` were 15.8 µM, greater than 100 µM, greater than 100 µM and 2.4.
With `CN(Cc1ccc2nccn2c1)c1nnc(-c2ccc(-c3ccccc3C#N)cc2)o1`, the IC50 in data set [1] is 0.0251 µM; in data set [2], 3.98 µM; in data set [4], 10 µM. The logD in data set [3] amounted to 3.6.
